Residue numbers refer to the chain shown, from its start.
Legend:
Test in all cases: biochemical
[1] = molecular target: T1, recombinant wildtype and mutated PPO (Amaranthus PPO2: PPX2L_WC SEQ ID NO 2, PPX2L_AC SEQ ID NO 4, dG210 SEQ ID NO 6 & 8) (Amaranthus tuberculatus, UniProt Q0NZW9, R128A/F420L, form not given)
T1 sequence (Q0NZW9 1-534 R128A/F420L): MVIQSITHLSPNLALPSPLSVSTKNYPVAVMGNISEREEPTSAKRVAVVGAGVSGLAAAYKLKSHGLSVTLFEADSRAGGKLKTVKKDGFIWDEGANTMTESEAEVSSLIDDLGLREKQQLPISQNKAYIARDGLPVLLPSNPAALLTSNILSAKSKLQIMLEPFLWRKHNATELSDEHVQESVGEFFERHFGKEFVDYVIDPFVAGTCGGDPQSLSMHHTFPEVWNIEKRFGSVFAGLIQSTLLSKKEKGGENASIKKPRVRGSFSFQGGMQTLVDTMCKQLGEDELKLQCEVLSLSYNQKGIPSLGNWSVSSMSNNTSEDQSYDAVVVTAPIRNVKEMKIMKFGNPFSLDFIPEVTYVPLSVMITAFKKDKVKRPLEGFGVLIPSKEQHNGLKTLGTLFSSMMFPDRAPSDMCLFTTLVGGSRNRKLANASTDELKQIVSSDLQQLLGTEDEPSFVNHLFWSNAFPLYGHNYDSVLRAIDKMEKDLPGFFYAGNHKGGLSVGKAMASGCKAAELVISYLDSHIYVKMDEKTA

[2] = molecular target: T2, recombinant wildtype and mutated PPO (Amaranthus PPO2: PPX2L_WC SEQ ID NO 2, PPX2L_AC SEQ ID NO 4, dG210 SEQ ID NO 6 & 8) (Amaranthus tuberculatus, UniProt Q0NZW9)
T2 sequence (Q0NZW9 1-534): T1 sequence (Q0NZW9 1-534 R128A/F420L) with A128R, L420F

[3] = molecular target: T3, recombinant wildtype and mutated PPO (Amaranthus PPO2: PPX2L_WC SEQ ID NO 2, PPX2L_AC SEQ ID NO 4, dG210 SEQ ID NO 6 & 8) (Amaranthus tuberculatus, UniProt Q0NZW9, D133A/F420M/R128Q); settings: IC50 (M)
T3 sequence (Q0NZW9 1-534 R128Q/D133A/F420M): T1 sequence (Q0NZW9 1-534 R128A/F420L) with A128Q, D133A, L420M

[4] = molecular target: T4, recombinant wildtype and mutated PPO (Amaranthus PPO2: PPX2L_WC SEQ ID NO 2, PPX2L_AC SEQ ID NO 4, dG210 SEQ ID NO 6 & 8) (Amaranthus tuberculatus, UniProt Q0NZW9, D133A/F420M/R128I); settings: IC50 (M)
T4 sequence (Q0NZW9 1-534 R128I/D133A/F420M): T1 sequence (Q0NZW9 1-534 R128A/F420L) with A128I, D133A, L420M

Compound | IC50 [1] [nM] | IC50 [2] [nM] | IC50 [3] [M] | IC50 [4] [M]
C#CCN1C(=O)C(F)(F)Oc2cc(F)c(N3C(=O)C4=C(CCCC4)C3=O)cc21 | 11400 | 0.146 | – | –
COC(Oc1ccccc1Oc1cc(-n2c(=O)cc(C(F)(F)F)n(C)c2=O)c(F)cc1Cl)C(=O)OC1CCCCC1 (stereo not shown) | 93.7 | – | 1.72e-07 | 1.06e-08
C#CCN1C(=O)C(F)(F)Oc2cc(F)c(-n3c(=O)cc(C(F)(F)F)n(C)c3=O)cc21 | 16.2 | 0.315 | – | –
COC(=O)C(OC)Oc1ccccc1Oc1cc(-n2c(=O)cc(C(F)(F)F)n(C)c2=O)c(F)cc1Cl (stereo not shown) | 47 | 0.411 | 7.14e-08 | 1.15e-08
C#CCN1C(=O)C(F)(F)Oc2cc(F)c(-n3c(=O)n(C)c(=S)n(C)c3=O)cc21 | – | – | 1.07e-08 | 6.1e-08

— US11866720B2, “Transgenic or non-transgenic plants with mutated protoporphyrinogen oxidase having increased tolerance to herbicides” (priority 2013, dated 2024)
